Source: patent publication US6756233B1, “Method for measuring free ligands in biological fluids, and assay kits for measuring same” (priority 1985, dated 2004)
“And” between values parts separate entries of the source, which are not always exact repeats. Equal values may be shown once. Read-outs that look alike come from different tables or passages of the source.

Columns and labels:
transport proteins = conditions: single samples
Method: Free testosterone calibrators, prepared by adding different amounts of testosterone to human serum free of any apparent testosterone, were calibrated by direct equilibrium dialysis and assigned free testosterone values in pg/ml. […] The tubes are incubated for 4 hours at 37° C., then decanted and radioactivity counted. Results are computed by interpolation to from the calibration curve.

[1] = biological target: T1, sex hormone-binding globulin (SHBG) (Homo sapiens, UniProt P04278); assay: Free testosterone assay, SHBG-spiked serum pool (Example 3); conditions: charcoal-absorbed human serum pool spiked with 400 μg SHBG/milliliter
T1 sequence (P04278 30-402): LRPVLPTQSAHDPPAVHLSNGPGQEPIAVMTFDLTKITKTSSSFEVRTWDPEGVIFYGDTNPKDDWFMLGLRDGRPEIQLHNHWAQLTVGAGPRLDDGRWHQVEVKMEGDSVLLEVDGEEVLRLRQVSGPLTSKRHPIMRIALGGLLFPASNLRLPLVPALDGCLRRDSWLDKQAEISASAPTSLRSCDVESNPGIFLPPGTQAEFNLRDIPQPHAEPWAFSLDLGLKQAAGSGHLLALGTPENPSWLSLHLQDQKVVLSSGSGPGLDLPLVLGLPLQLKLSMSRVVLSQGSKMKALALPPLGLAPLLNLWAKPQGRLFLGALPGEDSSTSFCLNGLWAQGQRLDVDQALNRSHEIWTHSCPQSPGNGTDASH
Method: To investigate the effect of sex hormone-binding globulin (SHBG) levels on the free testosterone assay system, a charcoal-absorbed human serum pool was spiked with 400 μg SHBG/milliliter, a level which is approximately 10 times normal.
Since charcoal absorption removes testosterone from the serum pool, it should have free (and total) testosterone concentrations of zero—that is, percent bound values of approximately 100% B/Bo—both before and after spiking.

albumin [2] = biological target: T2, albumin (Homo sapiens, UniProt P02768); conditions: cited from earlier work
albumin and/or SHBG = system: albumin and/or SHBG; design: species or system human
Method: Testosterone was selected as a representative member of this family. […] This analog tracer was subsequently compounded in 0.01 M HEPES buffer, pH=7.4, containing 1 mg/ml charcoal-absorbed human serum albumin and 0.01% sodium azide. Blocking agents were added, as described in the specific examples below.

[3] = system: anti-T4 antibody-coated tubes; assay: Free T4 assay of 20 samples with tracers holding different blocking agents (Example 5); design: species or system rabbits
Method: The tubes are then incubated for 60 minutes at 37° C. After this incubation the tubes are decanted and the bound radioactivity is counted. Results are calculated from the calibration curve and expressed in ng/dl.
Iodinated T4 analog was compounded as described above and divided into five aliquots. To each aliquot the following reagents were added.
Considering tracer 1 as the reference and comparing the others to it, the following results were obtained.

albumin [4] = biological target: T2, albumin; assay: Free testosterone assay, effect of oleic acid (Example 6); design: from tissue; host or cells: patient serum samples
Method: Since non-esterified free fatty acids (NEFA) have a higher association constant to albumin than does testosterone, addition of NEFA should displace free testosterone from albumin. This was confirmed by an experiment in which various amounts of oleic acid were added to each of three patient samples.

T2 sequence (P02768 25-609): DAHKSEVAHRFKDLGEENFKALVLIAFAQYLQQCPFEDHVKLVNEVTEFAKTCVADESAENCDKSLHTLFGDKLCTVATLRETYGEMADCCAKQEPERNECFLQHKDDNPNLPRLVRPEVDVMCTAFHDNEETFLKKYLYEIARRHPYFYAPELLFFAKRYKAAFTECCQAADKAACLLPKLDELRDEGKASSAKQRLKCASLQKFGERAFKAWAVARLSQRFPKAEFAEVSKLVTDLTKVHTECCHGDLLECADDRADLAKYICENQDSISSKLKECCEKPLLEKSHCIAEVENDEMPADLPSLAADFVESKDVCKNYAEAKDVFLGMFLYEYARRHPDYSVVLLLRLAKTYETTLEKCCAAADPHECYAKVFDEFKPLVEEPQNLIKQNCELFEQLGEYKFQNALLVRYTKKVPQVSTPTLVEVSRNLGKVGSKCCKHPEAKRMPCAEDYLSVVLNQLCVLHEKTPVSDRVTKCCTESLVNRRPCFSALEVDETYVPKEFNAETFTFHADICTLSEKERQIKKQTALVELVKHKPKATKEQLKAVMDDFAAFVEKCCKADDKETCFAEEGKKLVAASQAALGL

6-hydroxytestosterone-19-carboxymethyl ether histamine
binding to endogenous binders (endogenous binders): does not bind to endogenous binders | percent bound (% B/Bo) After charcoal absorption (transport proteins; 3rd Trimester): 99% and 96% and 97% | percent bound (% B/Bo) After charcoal absorption (transport proteins; Normal Females): 105% and 104% | percent bound value, B/Bo [1]: 99%

O=[N+]([O-])c1ccc(O)c([N+](=O)[O-])c1 [2,4-dinitrophenol]
association constant, albumin (single aromatic compounds) (albumin [2]): 11,000 | effect on protein-bound testosterone and tracer (albumin and/or SHBG): displace testosterone from albumin and/or SHBG

O=S(=O)(O)c1cccc2cccc(Nc3ccccc3)c12 [ANS, 8-anilino-1-naphthalenesulfonic acid]
effect on protein-bound testosterone and tracer (albumin and/or SHBG): displace testosterone from albumin and/or SHBG

CCCCCCCC/C=C\CCCCCCCC(=O)O [oleic acid]
oleic acid concentration in the tracer that displaces bound unlabeled T4 from albumin [3]: greater than 1.0 mmol/l | apparent free testosterone level, Mean (albumin [4]; Oleic Acid Added 2.5 mmol/l): 7.9 pg/mL | apparent free testosterone level, Mean (albumin [4]; Oleic Acid Added 5.0 mmol/l): 14.8 pg/mL | apparent free testosterone level, Patients 1-3 (albumin [4]; Oleic Acid Added 5.0 mmol/l): 11.6 pg/mL and 11.1 pg/mL and 21.8 pg/mL | apparent free testosterone level, Mean (albumin [4]; Oleic Acid Added 7.5 mmol/l): 23.2 pg/mL | apparent free testosterone level, Mean (albumin [4]; Oleic Acid Added 10.0 mmol/l): 32.0 pg/mL

O=C1OC(c2ccc(O)c(S(=O)(=O)O)c2)(c2ccc(O)c(S(=O)(=O)O)c2)c2c(Br)c(Br)c(Br)c(Br)c21 [sulfobromophthalein]
effect on protein-bound testosterone and tracer (albumin and/or SHBG): inhibits the binding of the analog tracer to albumin without displacing testosterone bound to albumin
